Experimental data as given in article PMC3344887 (PLoS ONE, 2012).
“And” between values parts separate entries of the source, which are not always exact repeats. Equal values may be shown once. Read-outs that look alike come from different tables or passages of the source.

Experiments:
NE transporter [1] = settings: read-out: Ki, NE transporter; rat cortex synaptosomes; cited from earlier work
healthy subjects [2] = experiment: Adjective Mood Rating Scale (AMRS), clinical study; format: in vivo, humans; settings: peak change from baseline, mean±SEM, 16 subjects
Procedure: (§1) The washout periods between the sessions were at least 10 days long.
(§2) Identical placebo (lactose) capsules were prepared. […] Drugs were administered without food.
(§3) The psychometric measures included Visual Analog Scales (VAS), [10], the Adjective Mood Rating Scale (AMRS), and 5-Dimensions of Altered States of Consciousness (5D-ASC), [23]. […] The VASs were presented as 100 mm horizontal lines marked “not at all" on the left and “extremely" on the right. The VASs for “closeness to others," “open," and “talkative" were bidirectional (±50 mm). The VASs were administered 4 h before and 0, 0.33, 1, 1.5, 2, 2.5, 3, 3.5, 4, and 5 h after MDMA or placebo administration. […] The AMRS contains subscales for activity, extroversion and introversion, well-being, emotional excitation, anxiety-depression, and dreaminess. The 5D-ASC rating scale measures alterations in mood, perception, experience of self in relation to the environment, and thought disorder. The 5D-ASC rating scale comprises five subscales or dimensions and 11 lower-order scales. The 5D-ASC dimension “oceanic boundlessness" (OB, 27 items) measures derealization and depersonalization associated with positive emotional states, ranging from heightened mood to euphoric exaltation. […] The global ASC score was determined by adding the OB, AED, and VR scores. The 5D-ASC scale was administered 4 h after MDMA or placebo administration.
(§4) Clinical data values were transformed to differences from baseline. Peak effects (Emax) were determined for repeated measures. Emax values were compared using General Linear Models repeated-measures analysis of variance, with drug as within-subject factor, using Statistica 6.0 software (StatSoft, Tulsa, OK). Tukey post hoc comparisons were performed based on significant main effects of treatment. Additional analyses of variance were performed, with period as factor to exclude period effects. Correlation analyses were performed using Pearson’s correlations. The criterion for significance was p<0.05. Mean arterial pressure (MAP) was calculated from diastolic blood pressure and systolic blood pressure using the following formula: MAP = DBP+(SBP - DBP)/3.

healthy subjects [3] = experiment: 5-Dimensions of Altered States of Consciousness (5D-ASC), clinical study; format: in vivo, humans; settings: p<0.001
Procedure: as §1, §2, §3

patients = settings: 60-120 mg/day; cited from earlier work
clinical = settings: for AUC(0-t): AUC0-6
Procedure: as §2
(§5) Plasma concentrations of copeptin were also determined in this study as reported elsewhere. […] No hydrolysis was performed. Thus, the values for HMMA represent the drug concentrations of the non-conjugated metabolite. All blood samples were collected on ice and centrifuged within 10 min at 4°C. The plasma was then stored at –20°C until the analysis.
Cmax and tmax were obtained directly from the observed concentration-time curves. […] Terminal elimination half-life (t 1/2) was calculated using λz and the equation t1/2 = ln2/λz. The area under the plasma concentration-time curve up to 6 h (AUC0-6h) was calculated using the linear trapezoidal rule. The AUC0–∞ was determined by extrapolation of AUC0–6h using λz. The PK parameters were determined using the PK functions for Excel (Microsoft, Redmont, CA, USA). Plasma concentrations were only determined up to 6 h after MDMA administration because the aim of the study was to assess potential changes in MDMA plasma levels while relevant pharmacodynamic effects or MDMA were present.

healthy subjects [4] = experiment: Adverse effects, List of Complaints, clinical study
Procedure: as §1, §2
(§6) Physiologic measures were assessed repeatedly 4, 3, 2, and 1 h before and 0, 0.33, 0.66, 1, 1.5, 2, 2.5, 3, 4, 5, and 6 h after MDMA or placebo administration. Heart rate, systolic blood pressure, and diastolic blood pressure were measured using an OMRON M7 blood pressure monitor (OMRON Healthcare Europe, Hoofddorp, The Netherlands). Measures were taken twice per time point with an interval of 1 min, and the average was used for the analysis. Core (tympanic) temperature was assessed using a GENIUS 2 ear thermometer (Tyco Healthcare Group, Watertown, NY). […] Adverse effects were assessed using the List of Complaints (LC), which consists of 66 items that yield a total adverse effects score and reliably measure physical and general discomfort.

healthy subjects [5] = experiment: Visual Analog Scales, subjective drug effects, clinical study; format: in vivo, humans; settings: peak change from baseline, mean±SEM, 16 subjects
Procedure: as §1, §2, §3, §4

DAT [6] = settings: cited from earlier work
[7] = cited from earlier work; for Mean plasma Cmax: healthy volunteers
healthy subjects [8] = experiment: Circulating plasma catecholamines, clinical study; format: in vivo, humans; settings: peak change from baseline, mean±SEM, 16 subjects
Procedure: as §1, §2, §5

healthy subjects [9] = experiment: Physiologic measures (blood pressure, heart rate, body temperature), clinical study; format: in vivo, humans; settings: peak change from baseline, mean±SEM, 16 subjects
Procedure: as §1, §2, §6, §4

NE transporter [10] = settings: cited from earlier work
SERT = SERT (Homo sapiens, UniProt P31645)
SERT, sequence (P31645 whole entry): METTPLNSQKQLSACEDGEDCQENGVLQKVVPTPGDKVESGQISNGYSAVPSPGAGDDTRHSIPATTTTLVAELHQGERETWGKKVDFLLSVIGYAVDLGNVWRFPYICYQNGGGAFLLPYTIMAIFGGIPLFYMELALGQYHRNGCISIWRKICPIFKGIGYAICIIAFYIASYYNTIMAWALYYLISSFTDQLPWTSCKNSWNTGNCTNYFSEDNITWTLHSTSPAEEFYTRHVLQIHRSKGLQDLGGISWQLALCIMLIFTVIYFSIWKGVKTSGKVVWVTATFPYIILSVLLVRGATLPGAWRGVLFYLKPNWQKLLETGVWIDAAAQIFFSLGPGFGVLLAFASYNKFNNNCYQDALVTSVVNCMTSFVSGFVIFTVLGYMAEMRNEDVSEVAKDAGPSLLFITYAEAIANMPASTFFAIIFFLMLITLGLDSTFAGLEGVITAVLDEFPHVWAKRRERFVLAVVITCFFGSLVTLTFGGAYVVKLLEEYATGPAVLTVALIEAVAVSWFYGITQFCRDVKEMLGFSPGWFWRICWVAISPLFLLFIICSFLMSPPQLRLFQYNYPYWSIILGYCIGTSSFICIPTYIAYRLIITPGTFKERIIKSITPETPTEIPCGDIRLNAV
From the text: The procedures were adapted from previous studies, [3]. […] This transports the cells through the silicon oil layer to the KOH layer, thereby separating the cells from the buffer, which remains on top of the silicon oil layer. The centrifuge tubes were then transferred to liquid nitrogen. The amount of tracer that remained in the cells was quantified by cutting the frozen centrifuge tube above the KOH/oil interface and putting the tip of the tube with the cell pellet in a scintillation vial that contained 500 µl lysis buffer (0.05 M TRIS-HCl, 50 mM NaCl, 5 mM EDTA, and 1% Nonidet P-40 substitute in water). The samples were then shaken for 1 h on a rotary shaker, and 7 ml of scintillation fluid (Ultimagold, Perkin Elmer, Schwerzenbach, Switzerland) was added. Cell-associated radioactivity was then counted. […] Dose-response curves were generated using 9–11 concentrations of MDMA/MDA. […] All data points were derived from at least three independent experiments, each assayed in triplicate. The data were fit by non-linear regression, and EC50 and Emax values were calculated using Prism (GraphPad, San Diego, CA).

NET [11] = biological target: T1, NET (Homo sapiens, UniProt P23975); experiment: [3H]-NE uptake inhibition, method A (silicon oil); format: cell-based; parameters: expressed in transfected cells; host or cells: HEK 293 cells (Invitrogen), stably transfected
T1 sequence (P23975 whole entry): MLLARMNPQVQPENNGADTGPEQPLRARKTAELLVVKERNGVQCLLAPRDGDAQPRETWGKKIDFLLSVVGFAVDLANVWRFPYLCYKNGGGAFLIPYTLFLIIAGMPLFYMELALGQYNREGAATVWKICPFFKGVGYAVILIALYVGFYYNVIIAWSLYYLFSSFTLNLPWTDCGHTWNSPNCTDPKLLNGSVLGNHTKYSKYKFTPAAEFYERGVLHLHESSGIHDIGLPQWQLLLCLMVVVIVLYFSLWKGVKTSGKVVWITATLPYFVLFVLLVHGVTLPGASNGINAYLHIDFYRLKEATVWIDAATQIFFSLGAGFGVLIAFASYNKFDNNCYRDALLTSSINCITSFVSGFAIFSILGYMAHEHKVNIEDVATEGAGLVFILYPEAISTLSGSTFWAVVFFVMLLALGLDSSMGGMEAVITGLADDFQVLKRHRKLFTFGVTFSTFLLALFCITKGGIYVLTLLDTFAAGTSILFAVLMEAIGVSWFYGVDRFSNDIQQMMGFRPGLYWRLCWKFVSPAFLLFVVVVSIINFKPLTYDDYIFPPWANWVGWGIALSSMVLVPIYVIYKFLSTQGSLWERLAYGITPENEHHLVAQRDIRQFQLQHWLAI

NET [12] = biological target: T1, NET; experiment: Radioligand binding, [3H]-nisoxetine, HEK 293 membranes; parameters: expressed in transfected cells; host or cells: HEK 293 cells (Invitrogen), stably transfected
DAT [13] = biological target: T2, DAT (Homo sapiens, UniProt Q01959); experiment: Radioligand binding, [3H]-WIN35,428, HEK 293 membranes; parameters: expressed in transfected cells; host or cells: HEK 293 cells (Invitrogen), stably transfected
DAT [14] = biological target: T2, DAT; experiment: cell-based
NCCc1c[nH]c2ccc(O)cc12 = experiment: cells, lysate or membranes; settings: other: method A
[15] = substrate: NCCc1ccc(O)c(O)c1; experiment: cells, lysate or membranes; settings: other: method A
[16] = Duloxetine-MDMA session, mean±SEM, n=16
[17] = Placebo-MDMA session, mean±SEM, n=16
[18] = duloxetine-MDMA vs placebo-MDMA

CNCC[C@H](Oc1cccc2ccccc12)c1cccs1 [Duloxetine]
Ki (NE transporter [1]): 2.1 nM | AMRS Activity, Emin (healthy subjects [2]): −2.69±0.69 | AMRS Dreaminess, Emax (healthy subjects [2]): 1.35±0.35 | AMRS Emotional excitation, Emax (healthy subjects [2]): 0.69±0.27 | AMRS Extroversion, Emax (healthy subjects [2]): 0.38±0.16 | AMRS Introversion, Emax (healthy subjects [2]): 1.13±0.30 | AMRS Well-being, Emax (healthy subjects [2]): 0.38±0.16 | Effect on MDMA's effects on the total ASC score (healthy subjects [3]): robustly reduced | Incidence of constipation (patients): 11% | Incidence of decreased appetite (patients): 8% | Incidence of dizziness (patients): 9-11% | Incidence of dry mouth (patients): 15-18% | Incidence of fatigue (patients): 14% | Incidence of headache (patients): 20% | Incidence of insomnia (patients): 11-15% | Incidence of nausea (patients): 20-29% | Incidence of sweating (patients): 6% | Cmax (clinical; human, in vivo): 112 ± 7.06 ng/mL | concentration at 120 min (clinical; human, in vivo): 314 ± 2.5 nM | Cmax (clinical; human, in vivo, 120 mg): 107 ± 10.2 ng/mL | AUC(0-t) (clinical; human, in vivo): 800 ± 74.4 ng·h/mL | AUC(0-inf) (clinical; human, in vivo, AUC(0-∞)): 1960 ± 230 ng·h/mL | Cmax (clinical; human, in vivo, Plasma concentration Cmax, text of b61): 112 ng/mL and 380 nM | half-life (clinical; human, in vivo, T1/2): 658 ± 62.4 min | Tmax (clinical; human, in vivo, Tmax): 5.14 ± 0.29 h | List of Complaints (total score), Acute adverse effects (healthy subjects [4]; at 3 h, change from baseline, mean±SEM, 16 subjects): −1.81±1.09 | List of Complaints (total score), Sub-acute adverse effects (healthy subjects [4]; at 24 h, change from baseline, mean±SEM, 16 subjects): −2.88±1.35 | Adverse effects produced (healthy subjects [4]; clinical study): daytime somnolence and moderate insomnia | VAS Any drug effect, Emax (healthy subjects [5]): 6.00±2.52 | VAS Closeness, Emax (healthy subjects [5]): 0.00±0.00 | VAS Drug high, Emax (healthy subjects [5]): 4.81±2.93 | VAS Drug liking, Emax (healthy subjects [5]): 7.56±4.43 | VAS Good drug effect, Emax (healthy subjects [5]): 8.75±5.01 | VAS Open, Emax (healthy subjects [5]): 0.38±0.38 | VAS Stimulated, Emax (healthy subjects [5]): 5.13±2.45 | VAS Talkative, Emax (healthy subjects [5]): 0.31±0.31 | Lower potency at DAT compared with SERT and NET (DAT [6]): 10- to 100 fold | Mean Cmax at steady state ([7]; 40 mg once daily): 35 ng/mL | Trough level at 24h at steady state ([7]; 40 mg once daily): approximately 10 ng/mL | Increase of AUC ([7]; after pretreatment with paroxetine): 1.6 fold | Elimination half-life [7]: 12 h | Tmax [7]: 6 h | Mean Cmax, population PK ([7]; daily 60 mg): 30 to 60 ng/mL | Mean trough level at 24h, population PK ([7]; daily 60 mg): ~25 ng/mL | Peak level at steady state ([7]; patients, daily 120 mg): 100 ng/mL | Trough level at steady state ([7]; patients, daily 120 mg): 50 ng/mL | Mean plasma Cmax ([7]; single oral dose 30 mg): 22 ng/mL | Mean plasma Cmax ([7]; single oral dose 60 mg): 44 ng/mL | Mean plasma Cmax ([7]; single oral dose 90 mg): 61 ng/mL | Circulating Epinephrine, Emax (healthy subjects [8]): 0.46 ± 0.10 nM | Circulating Norepinephrine, Emax (healthy subjects [8]): -0.18 ± 0.07 nM | DPB, Emax (healthy subjects [9]; diastolic blood pressure): 6.00±0.97 mm Hg | MAP, Emax (healthy subjects [9]; mean arterial pressure): 5.11±1.01 mm Hg | Heart rate, Emax (healthy subjects [9]): 5.06±1.27 beats/min | SBP, Emax (healthy subjects [9]; systolic blood pressure): 6.19±1.42 mm Hg | Body temperature, Emax (healthy subjects [9]; tympanic): 0.19±0.04 °C | Block of thyramine-induced increases in systolic blood pressure (NE transporter [10]; 60 mg for 14 days): not able to block | Suppression of blood pressure increase due to thyramine (NE transporter [10]; dose of 80-120 mg): effective in suppressing | Effect on MDMA- and MDA-induced 5-HT release (SERT): completely blocked

CNC(C)Cc1ccc(O)c(OC)c1 (stereo not drawn) [HMMA, 4-hydroxy-3-methoxymethamphetamine]
Cmax (clinical; Duloxetine-MDMA session (duloxetine 120 mg 16 and 4 h before MDMA 125 mg), plasma, mean±SEM, n=16): 2.00 ± 0.38 ng/mL | AUC0-6 (clinical; [16]): 8.14 ± 1.45 ng·h/mL | Tmax (clinical; [16]): 1.89 ± 0.25 h | Cmax (clinical; Placebo-MDMA session (MDMA 125 mg), plasma, mean±SEM, n=16): 3.36 ± 0.34 ng/mL | AUC0-6 (clinical; [17]): 13.57 ± 1.58 ng·h/mL | Tmax (clinical; [17]): 1.84 ± 0.17 h | Decrease in AUC0-6h by duloxetine (clinical; [18]): 48±6% | Decrease in Cmax by duloxetine (clinical; [18]): 46±6%

CC(N)Cc1ccc2c(c1)OCO2 (stereo not drawn) [MDA, 3,4-methylenedioxyamphetamine]
Ki (NET [11]): 341 nM | Cmax (clinical; human, in vivo): 10.7 ± 0.72 ng/mL | Cmax (clinical; human, in vivo, 125 mg): 11.8 ± 0.7 ng/mL | AUC(0-t) (clinical; human, in vivo): 46.6 ± 3.02 ng·h/mL | Tmax (clinical; human, in vivo, Tmax): 5.5 ± 0.22 h | Ki (NET [12]): 17.8 ± 4.06 µM | Ki (DAT [13]): 26.4 ± 4.24 µM | Ki (DAT [14]): 11 µM

CNCCCN1c2ccccc2CCc2ccccc21 [desipramine]
Block of thyramine-induced SBP responses (NE transporter [10]; no reference given): completely blocked

human SERT (Homo sapiens)
Km (NCCc1c[nH]c2ccc(O)cc12): 489 ± 147 nM

B1: human DAT (Homo sapiens) (protein)
chain: MSKSKCSVGLMSSVVAPAKEPNAVGPKEVELILVKEQNGVQLTSSTLTNPRQSPVEAQDRETWGKKIDFLLSVIGFAVDLANVWRFPYLCYKNGGGAFLVPYLLFMVIAGMPLFYMELALGQFNREGAAGVWKICPILKGVGFTVILISLYVGFFYNVIIAWALHYLFSSFTTELPWIHCNNSWNSPNCSDAHPGDSSGDSSGLNDTFGTTPAAEYFERGVLHLHQSHGIDDLGPPRWQLTACLVLVIVLLYFSLWKGVKTSGKVVWITATMPYVVLTALLLRGVTLPGAIDGIRAYLSVDFYRLCEASVWIDAATQVCFSLGVGFGVLIAFSSYNKFTNNCYRDAIVTTSINSLTSFSSGFVVFSFLGYMAQKHSVPIGDVAKDGPGLIFIIYPEAIATLPLSSAWAVVFFIMLLTLGIDSAMGGMESVITGLIDEFQLLHRHRELFTLFIVLATFLLSLFCVTNGGIYVFTLLDHFAAGTSILFGVLIEAIGVAWFYGVGQFSDDIQQMTGQRPSLYWRLCWKLVSPCFLLFVVVVSIVTFRPPHYGAYIFPDWANALGWVIATSSMAMVPIYAAYKFCSLPGSFREKLAYAIAPEKDRELVDRGEVRQFTLRHWLKV
Km [15]: 1707 ± 297 nM
